Where two headings read alike, the source gives them in different places. Marks after values point to notes of the source that are not given here.
Assays:
[1] = Ionization constants by potentiometric titration; assay type: physicochemical; details: mean ± SD, n = 3 titrations; for pKa: aqueous solution (DMSO stock diluted 1:10 with water), read-out: Measured pKa
Procedure: The autotitrator was controlled by Tiamo software (Version 1.3). pH measurements were conducted using a Metrohm LL Micro glass electrode which was calibrated on the day of use with calibration standards at pH 2, 4, 7 and 10. All reagents were standardized (directly or indirectly) against potassium hydrogen phthalate (Sigma-Aldrich, A.C.S. Acidimetric Standard). Titrant solutions were protected from carbon dioxide absorption by flushing with nitrogen before sealing or by the incorporation of a drying tube filled with self-indicating soda lime into the titration reaction vessel set-up.
Aliquots were introduced directly into the titration vessel and diluted 1:10 with water (typical final compound concentration of 0.5 mM).

human plasma = details: methods UF, ED, EP or not described per compound, ref [6]–[22] of Additional file 1; cited from earlier work
Caco-2 cell monolayers [2] = assay: Bidirectional permeability across Caco-2 cell monolayers; details: for efflux ratio: mean B–A/A–B Papp
Method in brief: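 Transport run in both directions with either HBSS/20 mM HEPES pH 7.4 or human plasma in apical and basolateral chambers, 0.1% v/v DMSO in donor. Donor and acceptor samples quantified by LC–MS; Papp and mass balance calculated, with plasma Papp corrected for donor fraction unbound. Efflux ratio = mean B–A/A–B Papp.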

[3] = Blood to plasma partitioning; assay type: in vitro ADME, human; details: 37 °C; for blood plasma ratio at 1000 ng/mL: human, whole blood, pH 7.4, human whole blood, read-out: B/P (whole blood to plasma partitioning ratio); for B/P (whole blood to plasma partitioning ratio): human whole blood
Procedure: Human whole blood was collected and supplied by the Volunteer Blood Donor Registry (Clinical Translation Centre, Walter & Eliza Hall Institute of Medical Research, Parkville, Australia) and used on the day of collection. The haematocrit (Hct) was determined by centrifugation (13,000×g for 3 min using Clemets® Microhaematocrit centrifuge and Safecap® Plain Self-sealing Mylar wrapped capillary tubes) to ensure it was between 0.40 and 0.48. An aliquot was centrifuged (Heraeus, Multifuge 3 S-R; 4500×g) for 10 min to obtain plasma required for matrix matching purposes as described below.
Two aliquots of the spiked whole blood were transferred to fresh microcentrifuge tubes and maintained at 37 °C/5% CO2 in a humidified incubator. The pH was confirmed to be 7.4 ± 0.1 at the start and end of the incubation. At each time point (30 min and 4 h), one whole blood tube was removed from the incubator and mixed by gentle inversion, after which four replicate blood samples were taken and matrix matched with an equal volume of blank plasma. The remainder of the blood sample was centrifuged (Eppendorf, Mini Spin plus; 6700×g) for 2 min for the collection of 4 replicate plasma samples which were similarly matrix matched with an equal volume of blank whole blood. The 1:1 mixtures of blood/plasma were mixed, snap frozen in dry ice and stored at − 80 °C until analysis by LC–MS (Additional file 1: Table S2) against calibration standards prepared in the same mixed matrix. Any further distribution of compound into RBCs at this stage was irrelevant as the cells were lysed during the sample preparation and the total concentration in the mixed matrix was measured for both the calibration standards and samples.
The apparent whole blood-to-plasma partitioning ratio (B/P) was calculated as the ratio of the average concentration in the blood sample to that in the plasma fraction of the same whole blood sample. A standard deviation (SD) for each B/P value was calculated using the propagation of errors approach as described previously.

Caco-2 cell monolayers [4] = details: cited from earlier work; for Literature ER: Caco-2, ref [33], [35] of Additional file 1; for Literature Papp: Caco-2 A-B, ref [33]–[35] of Additional file 1; for A–B Papp / B–A Papp: matrix: human plasma, corrected for fu
human liver microsomes = assay: in vitro; details: for HLM CLint: microsomes
Method in brief: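 Compound depletion in human liver microsomes was followed by LC–MS at 2–60 min, with cofactor-free controls. First-order depletion rate constants gave in vitro CLint (µL/min/mg protein), corrected to unbound CLint using measured microsomal fu.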

[5] = matrix: human plasma, corrected for fu

SMILES: COc1ncnc(NS(=O)(=O)c2ccc(N)cc2)c1OC [Sulfadoxine]
- pKa ([1]; acidic pKa (A)): 6.2 ± 0.01
- Literature fu (human plasma): 0.05-0.1

SMILES: CO[C@H]1O[C@@H]2O[C@@]3(C)CC[C@H]4[C@H](C)CC[C@@H]([C@H]1C)[C@@]24OO3 [Artemether]
- A–B Papp (Caco-2 cell monolayers [2]; matrix: pH 7.4 buffer): 46.3 10^−6 cm/s
- Literature fu (human plasma): 0.046

SMILES: Cc1nc(Nc2ncc(N3CCN(C)[C@H](C)C3)c(Nc3cc(C)n(C)n3)n2)cc(C2CC2)c1F [MMV253]
- blood plasma ratio at 1000 ng/mL [3]: 1 ± 0.05
- pKa ([1]; basic pKa (B)): 8 ± 0.03

SMILES: C[C@H]1c2cccc(O)c2C(=O)C2=C(O)[C@]3(O)C(=O)C(C(N)=O)=C(O)[C@@H](N(C)C)[C@@H]3[C@@H](O)[C@@H]21 [Doxycyclin]
- A–B Papp (Caco-2 cell monolayers [2]; matrix: pH 7.4 buffer): 3.4 ± 0.23 10^−6 cm/s
- Literature fu (human plasma): 0.12

SMILES: C[C@H]1[C@H](N2CCS(=O)(=O)CC2)O[C@@H]2O[C@@]3(C)CC[C@H]4[C@H](C)CC[C@@H]1[C@@]24OO3 [Artemisone]
- Measured pKa ([1]; basic pKa (B)): no ionizations could be detected
- A–B Papp (Caco-2 cell monolayers [2]; matrix: pH 7.4 buffer): 64.5 10^−6 cm/s
- Literature ER (Caco-2 cell monolayers [4]): 0.8
- Literature Papp (Caco-2 cell monolayers [4]): 59.6 ± 4.2 10-6 cm/sec

SMILES: COc1cc(C)c2c(Oc3cccc(C(F)(F)F)c3)c(OC)cc(NC(C)CCCN)c2n1 (stereo not drawn) [Tafenoquine]
- blood plasma ratio at 1000 ng/mL [3]: 1.3 ± 0.04
- pKa ([1]; basic pKa (B)): 8.7 ± 0.09
- Literature fu (human plasma): < 0.005

SMILES: CC1(C)c2nc(-c3ccc(F)cc3)c(Nc3ccc(F)cc3)n2CCN1C(=O)CN [KAF156]
- pKa ([1]; basic pKa (B)): 8.4 ± 0.06

SMILES: CCc1nc(N)nc(N)c1OCCCOc1ccccc1CCC(=O)O.Cl [P218]
- Unbound CLint (human liver microsomes): < 7.95^c µL/min/mg
- HLM CLint (human liver microsomes; human): < 7^b µL/min/mg
- B/P (whole blood to plasma partitioning ratio) [3]: 0.56 ± 0.03
- Measured pKa ([1]; acidic pKa (A)): 4.9 ± 0.002
- Measured pKa ([1]; basic pKa (B)): 7.3 ± 0.003
- B–A Papp (Caco-2 cell monolayers [2]; matrix: pH 7.4 buffer): 15 ± 1.7 10^−6 cm/s
- efflux ratio (Caco-2 cell monolayers [2]; matrix: pH 7.4 buffer): 21

SMILES: C[C@H]1[C@H](OC(=O)CCC(=O)O)O[C@@H]2O[C@@]3(C)CC[C@H]4[C@H](C)CC[C@@H]1[C@@]24OO3 [Artesunate]
- pKa ([1]; acidic pKa (A)): 4.7 ± 0.04
- A–B Papp (Caco-2 cell monolayers [2]; matrix: pH 7.4 buffer): 2.9 10^−6 cm/s
- Literature ER (Caco-2 cell monolayers [4]): 1.2

SMILES: CC(C)(N)CNC(=O)C[C@H]1CC[C@]2(CC1)OO[C@]1(O2)C2CC3CC(C2)CC1C3 [OZ277, Arterolane]
- Unbound CLint (human liver microsomes; human, 1 µM, pH 7.4): < 159 µL/min/mg
- pKa ([1]; basic pKa (B)): 8.9 ± 0.16

SMILES: COc1cc(NC(C)CCCN)c2ncccc2c1 (stereo not drawn) [Primaquine]
- Literature fu (human plasma): 0.35-0.55

SMILES: COc1ccc2nc3cc(Cl)ccc3c(Nc3cc(CN4CCCC4)c(O)c(CN4CCCC4)c3)c2n1 [Pyronaridine]
- blood plasma ratio at 1000 ng/mL [3]: 9 ± 0.83
- Literature ER (Caco-2 cell monolayers [4]): 1.8
- Literature Papp (Caco-2 cell monolayers [4]): 10.3 ± 0.3 10-6 cm/sec
- Literature fu (human plasma): < 0.35

SMILES: OC(c1cc(C(F)(F)F)nc2c(C(F)(F)F)cccc12)C1CCCCN1 (stereo not drawn) [Mefloquine]
- Unbound CLint (human liver microsomes; human, 1 µM, pH 7.4): < 140^c µL/min/mg
- pKa ([1]; basic pKa (B)): 8.5 ± 0.04
- Literature ER (Caco-2 cell monolayers [4]): 0.7
- Literature Papp (Caco-2 cell monolayers [4]): 9.9 ± 0.7 10-6 cm/sec
- A–B Papp (Caco-2 cell monolayers [4]): 180 ± 20 10^−6 cm/s
- B–A Papp (Caco-2 cell monolayers [4]): 150 ± 10 10^−6 cm/s
- Literature fu (human plasma): 0.02

SMILES: Cc1cc(Nc2ccc(S(F)(F)(F)(F)F)cc2)n2nc(C(C)(F)F)nc2n1 [DSM265]
- Measured pKa ([1]; basic pKa (B)): no ionizations could be detected
- A–B Papp (Caco-2 cell monolayers [2]; matrix: pH 7.4 buffer): 69.7 10^−6 cm/s

SMILES: CC1(C)N=C(N)N=C(N)N1c1ccc(Cl)cc1 [Cycloguanil]
- pKa ([1]; basic pKa (B)): 11.4 ± 0.3
- A–B Papp (Caco-2 cell monolayers [2]; matrix: pH 7.4 buffer): 1.2 ± 0.070 10^−6 cm/s
- A–B Papp (Caco-2 cell monolayers [2]; matrix: pH 7.4 buffer, listed as cycloguanil): < 5 10^−6 cm/s

SMILES: CCN(CC)CCCNc1ccnc2cc(Cl)ccc12.Cl.Cl [AQ-13]
- Unbound CLint (human liver microsomes): < 10.6^c µL/min/mg
- HLM CLint (human liver microsomes; human): < 7^b µL/min/mg
- B/P (whole blood to plasma partitioning ratio) [3]: 3.15 ± 0.20
- Measured pKa ([1]; basic pKa (B)): 7.6 ± 0.2 (B)
- A–B Papp (Caco-2 cell monolayers [2]; [5]): 25 ± 2.3 10^−6 cm/s
- B–A Papp (Caco-2 cell monolayers [2]; [5]): 32 ± 0.8 10^−6 cm/s
- efflux ratio (Caco-2 cell monolayers [2]; matrix: human plasma): 1.2
- Literature fu (human plasma): 0.45

SMILES: [H]/N=C(\N/C(=N/[H])Nc1ccc(Cl)cc1)NC(C)C [Proguanil]
- A–B Papp (Caco-2 cell monolayers [2]; matrix: pH 7.4 buffer): 3.5 ± 0.75 10^−6 cm/s
- Literature fu (human plasma): 0.25

SMILES: CS(=O)(=O)c1ccc(-c2cnc(N)c(-c3ccc(C(F)(F)F)nc3)c2)cc1 [MMV048]
- pKa ([1]; basic pKa (B)): 4 ± 0.07

SMILES: CCCCN(CCCC)CC(O)c1cc(Cl)cc2c1-c1ccc(Cl)cc1/C2=C/c1ccc(Cl)cc1 (stereo not drawn) [Lumefantrine]
- blood plasma ratio at 1000 ng/mL [3]: 0.48 ± 0.09
- Literature fu (human plasma): 0.003

SMILES: CCc1nc(N)nc(N)c1-c1ccc(Cl)cc1 [Pyrimethamine]
- pKa ([1]; basic pKa (B)): 6.9 ± 0.1
- Literature fu (human plasma): 0.088

SMILES: N#Cc1cc(NC(=O)[C@H]2c3ccccc3C(=O)N(CC(F)(F)F)[C@@H]2c2cccnc2)ccc1F [SJ733]
- pKa ([1]; basic pKa (B)): 4.1 ± 0.03
- A–B Papp (Caco-2 cell monolayers [2]; matrix: pH 7.4 buffer): 13.4 10^−6 cm/s

SMILES: C[C@H]1Cc2c([nH]c3cc(Cl)c(F)cc23)[C@@]2(N1)C(=O)Nc1ccc(Cl)cc12 [KAE609]
- blood plasma ratio at 1000 ng/mL [3]: 0.66 ± 0.04
- pKa ([1]; basic pKa (B)): 5.1 ± 0.02

SMILES: CC(C)NC(=N)NC(=N)Nc1ccc(Cl)c(Cl)c1 [Chlorproguanil]
- B/P (whole blood to plasma partitioning ratio) [3]: 3.3 ± 0.38
- blood plasma ratio at 1000 ng/mL [3]: > 3

SMILES: Clc1ccc2c(N3CCN(CCCN4CCN(c5ccnc6cc(Cl)ccc56)CC4)CC3)ccnc2c1 [Piperaquine]
- blood plasma ratio at 1000 ng/mL [3]: 0.57 ± 0.05
- A–B Papp (Caco-2 cell monolayers [4]): > 300 10^−6 cm/s
- B–A Papp (Caco-2 cell monolayers [4]): > 300 10^−6 cm/s
- Literature fu (human plasma): < 0.001

SMILES: O=C1C(O)=C([C@H]2CC[C@H](c3ccc(Cl)cc3)CC2)C(=O)c2ccccc21 [Atovaquone]
- A–B Papp (Caco-2 cell monolayers [4]): > 300 10^−6 cm/s
- B–A Papp (Caco-2 cell monolayers [4]): > 300 10^−6 cm/s
- Literature fu (human plasma): 0.001

SMILES: CCCCN(CCCC)CCC(O)c1cc2c(Cl)cc(Cl)cc2c2cc(C(F)(F)F)ccc12 (stereo not drawn) [Halofantrine]
- Unbound CLint (human liver microsomes; human, 1 µM, pH 7.4): 13,500 µL/min/mg
- A–B Papp (Caco-2 cell monolayers [4]): > 300 10^−6 cm/s
- B–A Papp (Caco-2 cell monolayers [4]): > 300 10^−6 cm/s

SMILES: CCNCc1cc(Nc2ccnc3cc(Cl)ccc23)ccc1O [Desethylamodiaquine]
- blood plasma ratio at 1000 ng/mL [3]: 3.26 ± 0.35
- pKa ([1]; basic pKa (B)): 8.5 ± 0.05
- Literature fu (human plasma): 0.18

SMILES: C[C@H]1[C@@H](O)O[C@@H]2O[C@@]3(C)CC[C@H]4[C@H](C)CC[C@@H]1[C@@]24OO3 [Dihydroartemisinin]
- Literature Papp (Caco-2 cell monolayers [4]): 38.6 ± 5.0 10-6 cm/sec
- Literature fu (human plasma): 0.092

Source: publication PMC6941357, “An in vitro toolbox to accelerate anti-malarial drug discovery and development” (Malaria Journal, 2020)
